Data taken from patent US6770740B1, “Crosslinked DNA condesate compositions and gene delivery methods” (The Regents of the University of Michigan, priority 1999, dated 2004).
Each block holds one compound with its values, some of them ahead of it. Where a SMILES comes first, the peptide text is derived from it. Where no end group is shown, it is not given here. Side-chain parts run from the residue outwards. vinylsulfone = vinylsulfone linkage of the PEG to the cysteine sulfhydryl (non-reducible, from PEG-vinylsulfone)

How the values were obtained:
[1] = Serum stability of DNA condensates in DNase I augmented mouse serum; assay type: in vitro ADME; details: 50% serum containing 0.12 units of DNase I, 37° C.
Experimental: DNA condensates (100 μL) were combined with 100 μL of DNase I augmented mouse serum (0.12 U of DNase I per 100 μl serum) and 3 μL of 5 M sodium chloride to bring the final salt concentration to 150 mM. Samples were incubated at 37° C. for 3 h while rapidly freezing 20 μL aliquots at time points ranging from 0 to 180 min. Serum samples were processed by adding 3 μL (0.31 U) of proteinase K and then incubated at 37° C. for 30 min to remove endonuclease activity. Sodium chloride was then added (4.6 μL of 5 M) along with trypsin (3 μL containing 7 U) and allowed to digest for 12 h at 37° C. to remove the crosslinked peptide. Samples were applied to a 1% agarose gel containing 0.05% SDS and electrophoresed as described above.

HepG2 cells [2] = experiment: Cytotoxicity in cell culture: total protein of cell homogenates 24 h after transfection; assay type: cell-based; details: 1-4 mol equivalents of glutaraldehyde corresponding to 1.5-6 μM
Experimental: HepG2 cells (3×10^5) were plated on 6×35 mm wells and grown for 48 h to 40% confluence in MEM supplemented with 10% fetal calf serum (FCS). Crosslinked DNA condensates (10 μg of DNA in 200 μL) were transfected in triplicate by drop wise addition to cells in 2% FCS either with or without 80 μM chloroquine followed by 5 h incubation, after which the media was replaced with 2 mL of MEM containing 10% fetal calf serum and allowed to incubate for an additional 19 h. Wells were sampled for 10 days at 24 h intervals by removing and freezing (−20° C.) the media and replacing it with 2 mL of fresh 10% FCS MEM.
The cytotoxity of both free glutaraldehyde and crosslinked DNA condensates were examined in cell culture. The total protein of cell homogenates harvested 24 h after transfecting cells in the presence of free glutaraldehyde or crosslinked DNA condensates were indistinguishable from control, indicated no toxicity when using 1-4 mol equivalents of glutaraldehyde corresponding to 1.5-6 μM.

HepG2 cells [3] = experiment: Cell binding of 125I-DNA condensates, Example 1; assay type: cell-based; details: 5 h transfection, 10 μg 125I-DNA condensates
Experimental: Iodinated plasmid DNA was prepared with specific activity of 300 nCi per μg of DNA as described previously (Teribesi et al., 1998). Prior to forming DNA condensates, the specific activity of the ^125I DNA was adjusted to 4.5 nCi per μg of DNA by combining with unlabeled plasmid. DNA condensates were prepared using AlkCWK18, PEG-SS-CWK18 or PEG-VS-CWK18 as described above. Peptide ^125I-DNA condensates (10 μg) were used to transfer HepG2 cells for 5 h according to the procedure described above. The radioactive media was removed, cells were washed with phosphate buffered saline, harvested with lysis buffer, and the cell-associated radioactivity was quantified by gamma counting.

plasmid DNA = experiment: Fluorescent dye (thiazole orange) displacement assay of peptide binding to DNA, Example 1; details: corresponding to a charge ratio of 1.8:1
Experimental: Peptide DNA condensates were formed by adding 75 μg of DNA (pCMVL in 750 μl of 5 mM Hepes pH 7.4) to varying amounts of peptide (7.5 to 90 nmol in 750 μl of Hepes) while vortexing, followed by equilibration at RT for 1 h. Peptide binding to DNA was monitored by a fluorescent dye displacement assay (Wadhwa et al. 1997). A 1 μg aliquot of the peptide DNA condensate was diluted to 1 ml in Hepes containing 0.1 μM thiazole orange. The fluorescence of the intercalated dye was measured on an LS50B fluorimeter (Perkin Elmer, UK) in a microcuvette by exciting at 500 nm while monitoring emission at 530 nm.

[4] = Solubility of peptide DNA condensates: particle size as a function of DNA concentration; assay type: physicochemical; details: throughout DNA concentrations 0.05-2 mg/ml
[5] = Particle size and zeta potential of peptide DNA condensates after freeze-drying and rehydration, Example 2; assay type: physicochemical; details: no sucrose
Experimental: The concentration of AlkCWK18 and PEG-CWK18 were determined by UV absorbance (Trp, ε280 nm=5,600 M^−1 cm^−1). Peptide DNA condensates were prepared in 5 mM Hepes pH 5 at a peptide/DNA stoichiometry of 0.3 nmol of peptide/μg of DNA. The condensates were formed by adding 450 μL of 100 μg/mL NT-βGal drop wise to 450 μL of 30 nmol/mL AlKCWK18 or PEG-CWK18 while vortexing. Each sample was prepared in triplicate, and after a 30 min equilibration, 20-100 μL of 50 wt/vol % solutions of either glucose, mannitol, galactose, dextran or sucrose were added followed by normalization to 1 mL to give a final sugar concentration of 1-5 wt/vol % and DNA concentration of 50 μg/mL.
The mean particle size of 50 μg/mL AlkCWK18 DNA condensates were determined by quasielastic light scattering (QELS) on a Brookhaven ZetaPlus™. Samples (1 mL) were frozen rapidly in dry ice ethanol in a 1.5 mL microcentrifuge tube and then lyophilized on a Labconco™ freeze dryer for 24 h operated at a constant vacuum of 55×10^−6 mBar while maintained at room temperature (22° C.). The maximal vacuum was achieved within 2 min after applying the sample.
At the highest sucrose concentration of 5 wt/vol %, samples remained frozen throughout freeze-drying but dried to form a glassy solid after 24 h. […] Freeze-dried samples prepared in triplicate were reconstituted in 1 mL of deionized water, allowed to equilibrate for 30 min and then analyzed by QELS as described above. Large peptide DNA condensates were measured by light microscopy with magnification of 100X. The particle size of PEG-peptide DNA condensates were also measured by transmission electron microscopy (TEM) according to a published procedure (Wadhwa et al., 1997).
The relationship between pH and rehydrated peptide DNA condensate particle size was examined in 5 mM Hepes at a pH range of 3-7. The particle size of 50 μg/mL DNA condensates in 5 wt/vol % sucrose was determined by QELS before and after freeze-drying as described above.
The rehydrated particle size of AlkCWK18 or PEG-CWK18 DNA condensates were also examined at a concentration of 0.05-5 mg/mL in 5 mM Hepes pH 5 with (AlkCWK18 DNA) or without (PEG-CWK18 DNA) the addition of 5 wt/vol % sucrose. DNA condensates were freeze-dried and reconstituted to the original concentration. QELS particle size analysis before and after freeze-drying required dilution of an aliquot of the sample to concentration of 50 μg/mL. Freeze-dried 5 mg/mL PEG-CWK18 DNA condensates were also reconstituted in 0.9 wt/vol % sodium chloride and analyzed for particle size.

HepG2 cells [6] = experiment: In vitro luciferase gene expression, Example 1; assay type: cell-based; details: HepG2, 24 h post-transfection, 10 μg DNA, 80 μM chloroquine
Experimental: HepG2 cells were plated at 1.5×10^5 cells per 35 mm well and grown to 40-70% confluence in MEM supplemented with 10% fetal calf serum (FCS). Peptide DNA condensates (10 μg of DNA) were added dropwise to triplicate sets of cells in 2% FCS containing 80 μM chloroquine. After 5 h incubation at 37° C., the media was replaced with MEM supplemented with 10% FCS, and luciferase expression was determined at 24 h. Cells were washed twice with ice-cold phosphate buffered saline (calcium and magnesium free) and then treated with 0.5 ml of ice-cold lysis buffer (25 mM Tris hydrochloride pH 7.8, 1 mM EDTA, 8 mM magnesium chloride, 1% Triton X-100, 1 mM DTT) for 10 min. The cell lysate was scraped, transferred to 1.5 ml micro centrifuge tubes, and centrifuged for 7 min at 13,000 g at 4° C. to pellet debris.
Lysis buffer (300 μl), sodium-ATP (4 μl of a 180 mM solution, pH 7, 4° C.) and cell lysate (100 μl, 4° C.) were combined in a test tube, briefly mixed and immediately placed in the luminometer. Luciferase relative light units (RLU) were recorded on a Lumat™ LB 9501 (Berthold Systems, Germany) with 10 sec integration after automatic injection of 100 μl of 0.5 mM D-luciferin (prepared fresh in lysis buffer without DTT). […]

[7] = QELS particle size and zeta potential of PEG-peptide DNA condensates and co-condensates, Example 1; assay type: physicochemical
Experimental: The particle size of peptide DNA condensates were analyzed at a DNA concentration of 50 μg/ml in Hepes by quasielastic light scattering (QELS). The particle surface change was determined by zeta potential analysis using a Brookhaven ZetaPlus™ (Brookhaven Instruments).
DNA co-condensates were prepared by add-mixing AlkCWK18 and PEG-VS-CWK18 in ratios ranging from 0 to 100 mol %, and condensing DNA at a charge ratio of 2.3:1 as described above. To establish the mol ratio of peptides bound to DNA, condensates were dialyzed in a fixed volume (0.5 ml) dialyzer for 75 h against water using a 100,000 MWCO membrane. Peptide DNA condensates in the retentate (0.5 ml) were dissociated by adding 50 μl of 5 M sodium chloride in 0.1% TFA. AlkCWK18 and PEG-VS-CWK18 were quantified by injecting 1 nmol of peptide (100 μl) onto analytical RP-HPLC eluted with 0.1% TFA and a gradient of acetonitrile (5 to 65% over 30 min) while detecting tryptophan by fluorescence (λex 280 nm, λem 350 nm). The peak integration areas were used to quantify AlkCWK18 and PEG-VS-CWK18 with reference to standard curves developed for each peptide.

time of stability of DNA before metabolism into oligonucleotides [1]: 60 min
Compound: NCCCC[C@H](NC(=O)[C@H](CCCCN)NC(=O)[C@H](CCCCN)NC(=O)[C@H](CCCCN)NC(=O)[C@H](CCCCN)NC(=O)[C@H](CCCCN)NC(=O)[C@H](CCCCN)NC(=O)[C@H](CCCCN)NC(=O)[C@H](CCCCN)NC(=O)[C@H](CCCCN)NC(=O)[C@H](CCCCN)NC(=O)[C@H](CCCCN)NC(=O)[C@H](CCCCN)NC(=O)[C@H](CCCCN)NC(=O)[C@H](CCCCN)NC(=O)[C@H](CCCCN)NC(=O)[C@H](CCCCN)NC(=O)[C@H](CCCCN)NC(=O)[C@H](Cc1c[nH]c2ccccc12)NC(=O)[C@@H](N)CS)C(=O)O [CWK18, Cys-Trp-Lys18] (H-CWKKKKKKKKKKKKKKKKKK-OH; N-terminus and C-terminus assumed)

Compound: O=CCCCC=O [glutaraldehyde]
cytotoxicity (HepG2 cells [2]): no toxicity

peptide:DNA stoichiometry at the asymptote of the dye displacement titration curve (relative DNA binding affinity) (plasmid DNA): 0.3 nmol per μg of DNA
Compound: PEG-VS-CWK18: non-reducible PEG-peptide from PEG-vinylsulfone (5 kDa) and the sulfhydryl of CWK18 (C([vinylsulfone-PEG 5 kDa])WKKKKKKKKKKKKKKKKKK)
cell associated 125I-DNA, percent of dose (HepG2 cells [3]): 0.2% | mean diameter of DNA condensates [4]: < 100 nm | particle diameter of freeze-dried and rehydrated DNA condensates by TEM ([5]; 5 mg/mL DNA): less than 100 nm | DNA concentration up to which particle size was retained on rehydration ([5]; rehydrated in water or normal saline): 5 mg/mL | reduction of spontaneous gene transfer (luciferase expression) relative to AlkCWK18 DNA condensates (HepG2 cells [6]): 1000 fold | zeta potential of DNA condensates ([7]; charge ratio 1.8:1): +10 mV | mean diameter of DNA condensates ([7]; charge ratio of 1.8:1 or higher, 50 μg/ml DNA in Hepes): 90 nm
